Where a name gives a salt, the structure may show the parent alone.
Columns and labels:
[1] = tested on: HEK293 cells; assay: Cytotoxicity on HEK293 cells (MTT); type: cell-based, human; conditions: after treatment; for IR (inhibitory rate) HEK293: 100μM; for inhibition at 100 µM: Homo sapiens, HEK293, 100μM, read-out: IR (inhibitory rate) HEK293
Procedure: (§1) Human normal hepatic L02 cells, human embryonic kidney cell line 293 cells (HEK293) and Rattus myoblast cell line H9C2 cells were respectively seeded in 96-well plates at a density of 4 × 10^3 cells per well and cultured in the 1640 or DMEM medium, with the supplement of 10% fetal bovine serum, penicillin (100 unit/ml), streptomycin (100 μg/ml) in a humidified incubator with 5% CO2 for 24 h. […] The cytotoxicities of the compounds were evaluated by MTT method.

[2] = tested on: L02 cells; assay: Cytotoxicity on L02 cells (MTT); type: cell-based, human; conditions: after treatment; for IR (inhibitory rate) L02: 100μM; for inhibition at 100 µM: Homo sapiens, L02, 100μM, read-out: IR (inhibitory rate) L02
Procedure: as §1

[3] = tested on: corticosterone-injured PC12 cells; assay: Protective effects on corticosterone-injured PC12 cells (MTT); type: cell-based, rat; design: key to PR (protection rate), Table S1: compounds did not shown protection effects on corticosterone-injured PC12 cells; conditions: 24 h after treatment; for PR (protection rate), Table S1: 1.25µM; for PR (protection rate): 200 μM corticosterone
Procedure: PC12 cells were purchased from American Type Culture Collection and were maintained in DMEM medium supplemented with penicillin (100 unit/ml), streptomycin (100 μg/ml), 5% fetal bovine serum (FBS), and 10% horse serum at 37 °C in humidified atmosphere with 5% CO2. The detailed procedures were performed referring to the reported literatures. Briefly, PC12 cells of logarithmic growth phase were collected, re-suspended and then seeded at a density of 1 × 10^5 cells per well in 96-well plates and cultured in the DMEM medium with 5% horse serum, 10% FBSfor 24 h.
After incubation with compounds, 20 μl of 5 mg/ml MTT solution was added to each well and cultured at 37 °C for 2 h–4 h. Then, the culture medium was removed, and 150 μl dimethyl sulfoxide(DMSO) was added to each well for 15 min at room temperature. The absorbance of each well was measured at 570 nm using a microplate reader. The protective rates (PR) were calculated according to equation (1).

Row | Molecule | IR (inhibitory rate) HEK293 [1] [%] | IR (inhibitory rate) L02 [2] [%] | PR (protection rate), Table S1 [3] | inhibition at 100 µM [1] [%] | inhibition at 100 µM [2] [%] | PR (protection rate) ([3]; 5 μM) [%] | PR (protection rate) ([3]; […]) [%] | PR (protection rate) ([3]; 1.25 μM)
1 | 1-(3,5-Dimethylpyridin-4-yl)-3-(2-(7-methoxy-3,4-dihydroisoquinolin-1-yl)ethyl)urea oxalate [6b-11] | 28.1 | 27.3 | - |  |  |  |  | 
2 | 2,6-Difluoro-N-(2-(7-methoxy-3,4-dihydroisoquinolin-1-yl)ethyl)benzamide oxalate [6a-34] | 47.1 | 44.0 | - |  |  |  |  | 
3 | 2-(3-(2-(7-Methoxy-3,4-dihydroisoquinolin-1-yl)ethyl)ureido)thiazole-5-carboxylate oxalate [6b-8] | 49.2 | 50.0 | - |  |  |  |  | 
4 | 2-((2-(7-Methoxy-3,4-dihydroisoquinolin-1-yl)ethyl)carbamoyl)phenylacetate oxalate [6a-20] | 57.1 | 54.9 | - |  |  |  |  | 
5 | 4-Fluoro-N-(2-(7-methoxy-3,4-dihydroisoquinolin-1-yl)ethyl)benzamide oxalate [6a-33] | 43.0 | 45.2 | - |  |  |  |  | 
6 | CCC(=O)NCCC1=NCCc2ccc(OC)cc21.O=C(O)C(=O)O [6a-2, N-(2-(7-Methoxy-3,4-dihydroisoquinolin-1-yl)ethyl) propionamide oxalate] |  |  |  | 23.4 | 12.4 | 3.1 | 18.1 | 
7 | COc1ccc2c(c1)C(CCNC(=O)C(F)(F)F)=NCC2 [6a-3, 2,2,2-Trifluoro-N-(2-(7-methoxy-3,4-dihydroisoquinolin-1-yl)ethyl) acetamideoxalate] |  |  | -^b | 60.1 | 59.6 |  |  | 
8 | COc1ccc2c(c1)C(CCNC(=O)C1CC1)=NCC2 [6a-4, N-(2-(7-Methoxy-3,4-dihydroisoquinolin-1-yl)ethyl) cyclopropanecarboxamideoxalate] |  |  | - | 46.2 | < 0 |  |  | 
9 | COc1ccc2c(c1)C(CCNC(=O)c1ccc(Cl)cc1)=NCC2 [6a-5, 4-Chloro-N-(2-(7-methoxy-3,4-dihydroisoquinolin-1-yl)ethyl) benzamideoxalate] |  |  | 4.1% | 60 | 67 |  |  | 
10 | COc1ccc(C(=O)NCCC2=NCCc3ccc(OC)cc32)cc1 [6a-6, 4-Methoxy-N-(2-(7-methoxy-3,4-dihydroisoquinolin-1-yl)ethyl) benzamideoxalate] |  |  | - | 34.1 | 24.9 |  |  | 
11 | COc1ccc2c(c1)C(CCNC(=O)c1ccccc1Cl)=NCC2 [6a-7, 2-Chloro-N-(2-(7-methoxy-3,4-dihydroisoquinolin-1-yl)ethyl) benzamide oxalate] |  |  | - | 27.4 | 23.5 |  |  | 
12 | COc1ccc2c(c1)C(CCNC(=O)c1ccc(C(F)(F)F)cc1)=NCC2 [6a-8, N-(2-(7-Methoxy-3,4-dihydroisoquinolin-1-yl)ethyl) -4-(trifluoromethyl) benzamideoxalate] |  |  | - | 38.4 | 60.6 |  |  | 
13 | COc1ccc2c(c1)C(CCNC(=O)c1ccco1)=NCC2 [6a-9, N-(2-(7-Methoxy-3,4-dihydroisoquinolin-1-yl)ethyl) furan-2-carboxamideoxalate] |  |  |  | 60.1 | 52.6 | 7.9 | 14.9 | 
14 | COc1ccc2c(c1)C(CCNC(=O)c1ccccc1)=NCC2.O=C(O)C(=O)O [6a-10, N-(2-(7-Methoxy-3,4-dihydroisoquinolin-1-yl)ethyl)benzamide oxalate] |  |  | - | 27.6 | 22.5 |  |  | 
15 | COc1ccc2c(c1)C(CCNC(=O)c1ccc(F)cc1)=NCC2 [6a-12, 4-Fluoro-N-(2-(7-methoxy-3,4-dihydroisoquinolin-1-yl)ethyl) benzamide oxalate] |  |  | 0.7% | 43.8 | 19.1 |  |  | 
16 | COc1ccc2c(c1)C(CCNC(=O)c1ccc(C(C)C)cc1)=NCC2 [6a-13, 4-Isopropyl-N-(2-(7-methoxy-3,4-dihydroisoquinolin-1-yl)ethyl) benzamide oxalate] |  |  | - | 57.6 | 43 |  |  | 
17 | COc1ccc(C(=O)NCCC2=NCCc3ccc(OC)cc32)c(OC)c1 [6a-15, 2,4-Dimethoxy-N-(2-(7-methoxy-3,4-dihydroisoquinolin-1-yl)ethyl) benzamide oxalate] |  |  | 3.7% | 56.1 | 49.5 |  |  | 
18 | COc1ccc2c(c1)C(CCNC(=O)c1ccc(C(C)=O)cc1)=NCC2 [6a-16, 4-Acetyl-N-(2-(7-methoxy-3,4-dihydroisoquinolin-1-yl)ethyl) benzamideoxalate] |  |  | 6.1% | < 20 | < 20 |  |  | 
19 | COc1ccc2c(c1)C(CCNC(=O)Cc1cc3ccccc3[nH]1)=NCC2.O=C(O)C(=O)O [6a-17, 2-(1H-Indol-2-yl)-N-(2-(7-methoxy-3,4-dihydroisoquinolin-1-yl)ethyl)acetamide oxalate] |  |  | - | 55.8 | 42.2 |  |  | 
20 | COc1ccc2c(c1)C(CCNC(=O)c1ccc(C(C)(C)C)cc1)=NCC2.O=C(O)C(=O)O [6a-18, 4-(tert-Butyl)-N-(2-(7-methoxy-3,4-dihydroisoquinolin-1-yl)ethyl)benzamide oxalate] |  |  | - | 53.3 | 63.2 |  |  | 
21 | COc1ccc2c(c1)C(CCNC(=O)c1ccc(C#N)cc1)=NCC2.O=C(O)C(=O)O [6a-19, 4-Cyano-N-(2-(7-methoxy-3,4-dihydroisoquinolin-1-yl)ethyl)benzamide oxalate] |  |  | - | 55.9 | 45 |  |  | 
22 | COc1ccc2c(c1)C(CCNC(=O)c1cccnc1Cl)=NCC2.O=C(O)C(=O)O [6a-21, 2-Chloro-N-(2-(7-methoxy-3,4-dihydroisoquinolin-1-yl)ethyl)nicotinamide oxalate] |  |  | 15.2% | 49.8 | 58.8 |  |  | above 10%
23 | COc1ccc2c(c1)C(CCNC(=O)c1cccc(C)c1)=NCC2.O=C(O)C(=O)O [6a-22, N-(2-(7-Methoxy-3,4-dihydroisoquinolin-1-yl)ethyl)-3-methylbenzamide oxalate] |  |  | - | 22.2 | 31.8 |  |  | 
24 | COc1ccc2c(c1)C(CCNC(=O)c1cccnc1)=NCC2.O=C(O)C(=O)O [6a-23, N-(2-(7-Methoxy-3,4-dihydroisoquinolin-1-yl)ethyl)nicotinamide oxalate] |  |  | - | 57.8 | 66.9 |  |  | 
25 | COc1ccc2c(c1)C(CCNC(=O)c1ccccn1)=NCC2.O=C(O)C(=O)O [6a-24, N-(2-(7-Methoxy-3,4-dihydroisoquinolin-1-yl)ethyl)picolinamide oxalate] |  |  | - | 62.9 | 55.8 |  |  | 
26 | COc1ccc2c(c1)C(CCNC(=O)c1ccc(C)cc1)=NCC2.O=C(O)C(=O)O [6a-25, N-(2-(7-Methoxy-3,4-dihydroisoquinolin-1-yl)ethyl)-4-methylbenzamide oxalate] |  |  | - | 65.7 | 50.8 |  |  | 
27 | COc1ccc2c(c1)C(CCNC(=O)c1ccc3ccccc3n1)=NCC2.O=C(O)C(=O)O [6a-26, N-(2-(7-Methoxy-3,4-dihydroisoquinolin-1-yl)ethyl)quinoline-2-carboxamide oxalate] |  |  | - | 48.6 | 42.7 |  |  | 
28 | COc1ccc2c(c1)C(CCNC(=O)Nc1ccc(Cl)c(C(F)(F)F)c1)=NCC2 [6b-9, 1-(4-Chloro-3-(trifluoromethyl)phenyl)-3-(2-(7-methoxy-3,4-dihydroisoquinolin-1-yl)ethyl)urea oxalate] |  |  |  | 31.6 | 25.7 |  |  | 
29 | COc1ccc2c(c1)C(CCNC(=O)NC(C)C)=NCC2 [6b-10, 1-Isopropyl-3-(2-(7-methoxy-3,4-dihydroisoquinolin-1-yl)ethyl)urea oxalate] |  |  |  | 34.7 | 31.9 |  |  | 
30 | COc1ccc2c(c1)C(CCNC(=O)Nc1ccc(Cl)cc1[N+](=O)[O-])=NCC2 [6b-16, 1-(4-Chloro-2-nitrophenyl)-3-(2-(7-methoxy-3,4-dihydroisoquinolin-1-yl)ethyl)urea oxalate] |  |  |  | 52 | 53.2 |  |  | 

From publication PMC5048153 (Scientific Reports, 2016)
